What was measured:
[1] = test system: patient suffering from SAPHO syndrome; assay: Case report: oral NMN in a patient with SAPHO syndrome, BASDAI self-assessment questionnaire; format: in vivo, human; details: one patient
Method: (§1) This case report investigated the effects of nicotinamide mononucleotide derivatives according to the invention in a patient suffering from SAPHO syndrome. Especially, the effects of nicotinamide mononucleotide (NMN), i.e. compound 001, were investigated. NMN was orally administered at a dose of 500 mg/day, once a day in the morning, for 12 months. The patient reported that SAPHO syndrome manifested with osteitis in the upper right chest area managed with NSAIDs. At the start of the treatment, the patient reported strong pain and swelling (7.5/10) in joints affected by the disease. The patient also suffered from fatigue. In the absence of SAPHO syndrome specific questionnaire, efficacy of the treatment was assessed using self-assessment questionnaires: the Bath Ankylosing Spondylitis Disease Activity Index (BASDAI) which is the gold standard for measuring and following disease activity in Ankylosing Spondylitis, and the Bath Ankylosing Spondylitis Functional Index (BAFSI) for measuring and monitoring functional ability in patients with ankylosing spondylitis. […] Evaluation was performed before start of the treatment, and after 12 months of treatment.

[2] = test system: patient suffering from SAPHO syndrome; assay: Case report: oral NMN in a patient with SAPHO syndrome, BASFI self-assessment questionnaire; format: in vivo, human; details: one patient
Method: as §1

NC(=O)c1ccc[n+]([C@@H]2O[C@H](COP(=O)([O-])O)[C@@H](O)[C@H]2O)c1 [NMN, nicotinamide mononucleotide]
BASDAI score after NMN ([1]; 500 mg/day oral once a day, after 12 months, before NMN: 5.4, scores of 4 or greater suggest suboptimal control of disease): 3
effect on fatigue, pain and swelling of the joints and discomfort (BASDAI items) ([1]; 500 mg/day oral, 12 months, before: pain and swelling 7.5/10, fatigue 6.5/10, discomfort 6.5/10): significantly improved fatigue, pain and swelling of the joints and discomfort
BASFI score after NMN ([2]; 500 mg/day oral once a day, after 12 months, before NMN: 2.4): 2.1
BASFI item: physically demanding activities, score ([2]; 500 mg/day oral, after one year treatment, before treatment 7/10): 4.5 /10
